Reference: PubChem BioAssay AID256 (DTP/NCI, 2004)
Where “and” joins values, the source holds several entries; their conditions need not be identical. Equal values may be shown once. Toxic doses and inconclusive results are not listed. The calls were made as follows: active = survival T/C of 150% or more; inactive = T/C below 125% in these data.

Tested on: CD2F1 mice, L1210 leukemia ip, survival T/C
Experiment: NCI In Vivo Anticancer Drug Screen. Data for tumor model L1210 Leukemia (intraperitoneal) in CD2F1 (CDF1) mice
Settings: endpoint: mean survival time, higher = longer survival
Procedure, shortened: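 Each value reflects a quotient of treated over vehicle control outcomes in mice with a transplanted tumor.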

Measured: T/C

Nc1nc(=S)c2ncn(C3CC(O)C(CO)O3)c2[nH]1 (stereo unspecified)
active: dose: 1.25 mg/kg/injection, schedule: Q01DX005 (ip), vehicle: saline 150 % of control | dose: 5.0 mg/kg/injection, schedule: Q01DX005 (ip), vehicle: saline with Tween-80 154 % of control | dose: 5.0 mg/kg/injection, schedule: Q01DX005 (oral), vehicle: saline 160 % of control | dose: 5.0 mg/kg/injection, schedule: Q04DX003 (ip), vehicle: water 153 % of control | dose: 8.0 mg/kg/injection, schedule: Q01DX009 (ip), vehicle: saline 151 % of control | dose: 10.0 mg/kg/injection, schedule: Q01DX005 (ip), vehicle: saline 151 % of control | dose: 10.0 mg/kg/injection, schedule: Q01DX005 (oral), vehicle: saline 156 % of control | dose: 10.0 mg/kg/injection, schedule: Q04DX003 (ip), vehicle: suspension in saline 154 % of control | dose: 10.0 mg/kg/injection, schedule: Q04DX003 (iv), vehicle: suspension in saline 177 % of control | dose: 16.0 mg/kg/injection, schedule: Q01DX005 (ip), vehicle: saline 161 % of control | dose: 16.0 mg/kg/injection, schedule: Q01DX009 (ip), vehicle: saline 170 % of control | dose: 16.0 mg/kg/injection, schedule: Q01DX009 (sc), vehicle: saline 151 % of control | dose: 20.0 mg/kg/injection, schedule: Q01DX005 (oral), vehicle: saline 151 % of control | dose: 20.0 mg/kg/injection, schedule: Q03HX008 (ip), vehicle: saline 152 % of control | dose: 20.0 mg/kg/injection, schedule: Q03HX024 (ip), vehicle: saline 150 % of control | dose: 20.0 mg/kg/injection, schedule: Q04DX003 (ip), vehicle: saline 157 % of control | dose: 20.0 mg/kg/injection, schedule: Q04DX003 (ip), vehicle: suspension in saline 159 % of control | dose: 20.0 mg/kg/injection, schedule: Q04DX003 (iv), vehicle: suspension in saline 159 % of control | dose: 32.0 mg/kg/injection, schedule: Q01DX005 (ip), vehicle: saline 152 % of control | dose: 32.0 mg/kg/injection, schedule: Q01DX009 (ip), vehicle: saline 157 % of control | dose: 32.0 mg/kg/injection, schedule: Q01DX009 (sc), vehicle: saline 150 % of control | dose: 37.5 mg/kg/injection, schedule: Q04DX003 (ip), vehicle: saline 163 % of control | dose: 40.0 mg/kg/injection, schedule: Q03HX008 (ip), vehicle: saline 157 % of control | dose: 40.0 mg/kg/injection, schedule: Q03HX016 (ip), vehicle: saline 156 % of control | dose: 40.0 mg/kg/injection, schedule: Q03HX024 (ip), vehicle: saline 159 % of control | dose: 40.0 mg/kg/injection, schedule: Q04DX003 (ip), vehicle: saline 178 % of control | dose: 40.0 mg/kg/injection, schedule: Q04DX003 (ip), vehicle: suspension in saline 151 % of control | dose: 40.0 mg/kg/injection, schedule: Q04DX003 (iv), vehicle: suspension in saline 189 % of control | dose: 40.0 mg/kg/injection, schedule: Q08DX002 (ip), vehicle: saline 152 % of control | dose: 75.0 mg/kg/injection, schedule: Q04DX003 (ip), vehicle: saline 154 % of control | dose: 80.0 mg/kg/injection, schedule: Q01DX001 (ip), vehicle: saline 154 % of control | dose: 80.0 mg/kg/injection, schedule: Q03HX008 (ip), vehicle: saline 161 % of control | dose: 80.0 mg/kg/injection, schedule: Q03HX016 (ip), vehicle: saline 168 % of control | dose: 80.0 mg/kg/injection, schedule: Q03HX024 (ip), vehicle: saline 161 % of control | dose: 80.0 mg/kg/injection, schedule: Q04DX003 (ip), vehicle: saline 174 % of control | dose: 80.0 mg/kg/injection, schedule: Q04DX003 (ip), vehicle: suspension in saline 154 % of control | dose: 80.0 mg/kg/injection, schedule: Q04DX003 (iv), vehicle: suspension in saline 162 % of control | dose: 80.0 mg/kg/injection, schedule: Q08DX002 (ip), vehicle: saline 154 % of control | dose: 116.0 mg/kg/injection, schedule: Q01DX009 (ip), vehicle: water 150 % of control | dose: 150.0 mg/kg/injection, schedule: Q04DX003 (ip), vehicle: saline 152 % of control | dose: 160.0 mg/kg/injection, schedule: Q03HX008 (ip), vehicle: saline 160 % of control | dose: 160.0 mg/kg/injection, schedule: Q03HX016 (ip), vehicle: saline 174 % of control | dose: 160.0 mg/kg/injection, schedule: Q03HX024 (ip), vehicle: saline 155 % of control | dose: 160.0 mg/kg/injection, schedule: Q04DX003 (ip), vehicle: saline 162 % of control | dose: 160.0 mg/kg/injection, schedule: Q08DX002 (ip), vehicle: saline 158 % of control and 152 % of control | dose: 240.0 mg/kg/injection, schedule: Q01DX001 (oral), vehicle: saline 152 % of control | dose: 320.0 mg/kg/injection, schedule: Q01DX001 (oral), vehicle: saline 152 % of control | dose: 320.0 mg/kg/injection, schedule: Q03HX008 (ip), vehicle: saline 162 % of control | dose: 320.0 mg/kg/injection, schedule: Q03HX016 (ip), vehicle: saline 158 % of control
inactive: dose: 2.5 mg/kg/injection, schedule: Q01DX001 (ip), vehicle: steriod suspending solution 123 % of control | dose: 4.0 mg/kg/injection, schedule: Q01DX009 (sc), vehicle: saline 108 % of control | dose: 8.0 mg/kg/injection, schedule: Q01DX009 (sc), vehicle: saline 106 % of control | dose: 10.0 mg/kg/injection, schedule: Q01DX005 (ip), vehicle: saline with Tween-80 120 % of control | dose: 16.0 mg/kg/injection, schedule: Q01DX009 (ip), vehicle: water 108 % of control | dose: 20.0 mg/kg/injection, schedule: Q01DX001 (sc), vehicle: saline 121 % of control | dose: 24.0 mg/kg/injection, schedule: Q01DX009 (ip), vehicle: water 116 % of control and 103 % of control | dose: 24.0 mg/kg/injection, schedule: Q04DX003 (ip), vehicle: water 118 % of control | dose: 36.0 mg/kg/injection, schedule: Q01DX009 (ip), vehicle: water 103 % of control | dose: 36.0 mg/kg/injection, schedule: Q04DX003 (ip), vehicle: water 111 % of control | dose: 37.5 mg/kg/injection, schedule: Q04DX003 (ip), vehicle: clinical formulation 102 % of control | dose: 50.0 mg/kg/injection, schedule: Q01DX009 (ip), vehicle: water 107 % of control | dose: 50.0 mg/kg/injection, schedule: Q04DX003 (ip), vehicle: water 120 % of control and 103 % of control | dose: 64.0 mg/kg/injection, schedule: Q01DX009 (ip), vehicle: saline 123 % of control | dose: 75.0 mg/kg/injection, schedule: Q04DX003 (ip), vehicle: clinical formulation 111 % of control | dose: 76.0 mg/kg/injection, schedule: Q01DX009 (ip), vehicle: water 115 % of control | dose: 76.0 mg/kg/injection, schedule: Q04DX003 (ip), vehicle: water 122 % of control and 103 % of control | dose: 96.0 mg/kg/injection, schedule: Q01DX009 (oral), vehicle: saline 115 % of control | dose: 116.0 mg/kg/injection, schedule: Q01DX005 (ip), vehicle: water 117 % of control | dose: 116.0 mg/kg/injection, schedule: Q04DX003 (ip), vehicle: water 106 % of control | dose: 176.0 mg/kg/injection, schedule: Q01DX005 (ip), vehicle: water 105 % of control | dose: 176.0 mg/kg/injection, schedule: Q04DX003 (ip), vehicle: water 121 % of control | dose: 192.0 mg/kg/injection, schedule: Q01DX009 (oral), vehicle: saline 106 % of control | dose: 266.0 mg/kg/injection, schedule: Q01DX005 (ip), vehicle: water 88 % of control | dose: 266.0 mg/kg/injection, schedule: Q04DX003 (ip), vehicle: water 115 % of control | dose: 300.0 mg/kg/injection, schedule: Q04DX003 (ip), vehicle: saline 101 % of control | dose: 320.0 mg/kg/injection, schedule: Q04DX003 (ip), vehicle: suspension in saline 108 % of control
